In one assay the target is T1, PDI full-length protein (Homo sapiens, UniProt P07237).
T1 construct: PDI full-length protein (Sigma, St. Louis, MO) was immobilized onto a CM5 sensorchip; purchased Sigma (St. Louis, MO)
Put plainly: Surface Plasmon Resonance binding to immobilized PDI (Biacore T200). The following applies: SPR, 25°C, pH 7.4. How it is done: SPR measurements were performed at 25°C on a Biacore T200 biosensor (GE Healthcare). PDI full-length protein (Sigma, St. Louis, MO) was immobilized onto a CM5 sensorchip using an amine coupling immobilization kit (GE Healthcare) as instructed by the supplier. After the chip was washed with Biacore running buffer (150 mM NaCl, and 0.005% (w/v) Polysorbate 20, 10 mM HEPES, pH 7.4), peptides ANP, BNP or CNP were injected at 40 ul/min for 30 s and allowed to dissociate for 150 s. Residual bound peptide was desorbed with 350 mM NaCl. Binding kinetics were derived from sensorgrams using Bioevaluation software version 4.1.1 (GE Healthcare).
For orientation: In SPR one partner is held on a chip, and binding of the other changes the refractive index at the surface.

In a further assay the test system is HMCs, HASMCs, and HUVECs. Kind of assay: Total cellular cGMP in HMCs, HASMCs and HUVECs (summary over cells). Format: cell-based, human. How it is done:
(§1) Human umbilical vein endothelial cells (HUVECs), human aortic smooth muscle cells (HASMCs), and pig kidney epithelial cells (LLC-PK1) were purchased from American Type Culture Collection (ATCC) (Manassas, VA). HUVECs were cultured in endothelial growth medium (EGM-2) with supplements (Lonza, Hopkinton, MA). HASMCs were cultured in smooth muscle cells growth medium (SmBM) with supplements (Lonza). Primary human glomerular mesangial cells (HMCs) (Cell Systems Inc., Kirkland, WA) were grown in mesangial growth media with supplements (Cell Systems Inc.). LLC-PK1 cells were grown in Dullbecco's Modification of Eagle's Medium (DMEM) containing 10% FBS. All cell cultures were grown at 37°C in humidified 5% CO2 air. Primary cells from passage 3 to 7 were used in this study. Total cellular cGMP was measured using the BIOTRAK cGMP enzyme immunoassay system Kit (GE Healthcare) as previously described. Briefly, cells were plated in 96-well plates and incubated overnight to reach 80% confluence. The cells were stimulated with different concentrations of synthetic natriuretic peptides dissolved in basic culture medium containing 0.5 mM IBMX for 30 minutes, then lysed. All samples were completed in triplicate for each experiment. The amount of cGMP was calculated from a standard curve that was generated in parallel. […]

The next assay concerns GC-B. Put plainly: Western blot of GC-B expression in HMCs. Format: cell-based, human. The following applies: HMCs with and without bacitracin. How it is done:
(§2) Human umbilical vein endothelial cells (HUVECs), human aortic smooth muscle cells (HASMCs), and pig kidney epithelial cells (LLC-PK1) were purchased from American Type Culture Collection (ATCC) (Manassas, VA). HUVECs were cultured in endothelial growth medium (EGM-2) with supplements (Lonza, Hopkinton, MA). HASMCs were cultured in smooth muscle cells growth medium (SmBM) with supplements (Lonza). Primary human glomerular mesangial cells (HMCs) (Cell Systems Inc., Kirkland, WA) were grown in mesangial growth media with supplements (Cell Systems Inc.). LLC-PK1 cells were grown in Dullbecco's Modification of Eagle's Medium (DMEM) containing 10% FBS. All cell cultures were grown at 37°C in humidified 5% CO2 air. Primary cells from passage 3 to 7 were used in this study. Conventional western blotting was used to identify PDI in cellular proteins and was described previously.
Background: In western blotting, separated proteins are transferred to a membrane and probed.

Assay [1] has as its system human aortic smooth muscle cells (HASMCs). Put plainly: Total cellular cGMP (BIOTRAK enzyme immunoassay) in HASMCs stimulated by natriuretic peptides. Format: cell-based. The following applies: 30 minutes with NP, 0.5 mM IBMX, p ≤0.05 vs samples without bacitracin, 3 independent experiments in triplicate. On the procedure:
as §1

The subject of a further assay is PDI. Kind of assay: Diphtheria toxin sensitivity assay (cell survival) in HMCs. The class given is cell-based, human. The following applies: DT 30 minutes then 72 hours, p<0.05, 3 independent experiments.
Assay [2] concerns pig kidney epithelial cells (LLC-PK1). Put plainly: Total cellular cGMP (BIOTRAK enzyme immunoassay) in LLC-PK1 cells stimulated by ANP. Format: cell-based. How it is done: as §2, with “study.” for “study. Conventional western blotting was used to identify PDI in cellular proteins and was described previously.”
(§3) Total cellular cGMP was measured using the BIOTRAK cGMP enzyme immunoassay system Kit (GE Healthcare) as previously described. Briefly, cells were plated in 96-well plates and incubated overnight to reach 80% confluence. The cells were stimulated with different concentrations of synthetic natriuretic peptides dissolved in basic culture medium containing 0.5 mM IBMX for 30 minutes, then lysed. All samples were completed in triplicate for each experiment. The amount of cGMP was calculated from a standard curve that was generated in parallel. […]

In assay [3] the test system is human mesangial cells (HMCs). Put plainly: Total cellular cGMP (BIOTRAK enzyme immunoassay) in HMCs stimulated by natriuretic peptides. Format: cell-based. How it is done:
as §2, with “study.” for “study. Conventional western blotting was used to identify PDI in cellular proteins and was described previously.”
as §3

Assay [4] concerns human umbilical vein endothelial cells (HUVECs). Kind of assay: Total cellular cGMP (BIOTRAK enzyme immunoassay) in HUVECs stimulated by natriuretic peptides. The class given is cell-based. The following applies: 30 minutes with NP, 0.5 mM IBMX, p ≤0.05 vs samples without bacitracin, 3 independent experiments in triplicate. How it is done:
as §1

These results are taken from paper PMC4242536, “Cell Surface Protein Disulfide Isomerase Regulates Natriuretic Peptide Generation of Cyclic Guanosine Monophosphate” (PLoS ONE, 2014).

T1 sequence (P07237 18-508, species assumed): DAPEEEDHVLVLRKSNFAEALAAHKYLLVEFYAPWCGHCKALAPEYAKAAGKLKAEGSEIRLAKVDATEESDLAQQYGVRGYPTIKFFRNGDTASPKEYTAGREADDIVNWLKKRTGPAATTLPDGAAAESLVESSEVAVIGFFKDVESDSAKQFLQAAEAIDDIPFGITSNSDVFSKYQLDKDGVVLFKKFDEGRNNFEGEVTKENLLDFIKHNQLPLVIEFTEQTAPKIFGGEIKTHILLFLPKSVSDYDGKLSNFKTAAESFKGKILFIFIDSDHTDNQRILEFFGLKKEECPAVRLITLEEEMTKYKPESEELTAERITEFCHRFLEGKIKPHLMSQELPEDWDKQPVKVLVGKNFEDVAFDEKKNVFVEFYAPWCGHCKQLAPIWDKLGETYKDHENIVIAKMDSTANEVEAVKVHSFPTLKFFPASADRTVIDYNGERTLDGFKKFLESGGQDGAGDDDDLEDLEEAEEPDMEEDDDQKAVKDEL

As to `CC[C@H](C)[C@@H]1NC(=O)[C@H](CCCNC(=N)N)NC(=O)[C@H](CC(=O)O)NC(=O)[C@H](CCSC)NC(=O)[C@H](CCCCN)NC(=O)[C@H](CCCNC(=N)N)NC(=O)CNC(=O)[C@H](Cc2ccccc2)NC(=O)[C@@H](NC(=O)CNC(=O)[C@H](CO)NC(=O)CNC(=O)[C@H](CCC(N)=O)NC(=O)[C@@H](NC(=O)[C@H](CCSC)NC(=O)[C@H](CCCCN)NC(=O)[C@@H]2CCCN2C(=O)[C@@H](N)CO)C(C)C)CSSC[C@@H](C(=O)N[C@@H](CCCCN)C(=O)N[C@H](C(=O)N[C@@H](CC(C)C)C(=O)N[C@@H](CCCNC(=N)N)C(=O)N[C@@H](CCCNC(=N)N)C(=O)N[C@@H](Cc2c[nH]cn2)C(=O)O)C(C)C)NC(=O)CNC(=O)[C@H](CC(C)C)NC(=O)CNC(=O)[C@H](CO)NC(=O)[C@H](CO)NC(=O)[C@H](CO)NC(=O)[C@H](CO)NC1=O` [BNP, B-type natriuretic peptide], on PDI full-length protein (0–1600 nM ANP and BNP, 200 nM comparison of NPs), the “binding to immobilized PDI (in words)” value was “highest binding affinity with PDI and displayed dose-dependent increases in binding”.

Turning to C-type natriuretic peptide [CNP], the “affinity for PDI (in words)” value in the assay with PDI full-length protein (compared with ANP and BNP, Fig. 5D) is on record as “much lower affinity”.

As for bacitracin, the “dose dependence of the inhibitory effect on NP-mediated cGMP” value with HMCs, HASMCs, and HUVECs (data not shown, HMCs, HASMCs and HUVECs) is on record as “dose dependent”. Also, the “effect on NP cGMP generation compared to RL90 or siRNA knockdown” value in the assay with HMCs, HASMCs, and HUVECs (in words) was “greater effect”. Also, in the assay on GC-B, the “effect on GC-B expression” value is “no difference in GC-B expression”. The “attenuation of ANP, BNP, and CNP-mediated increases in cGMP” value was “significantly attenuated” in assay [1]; “significantly attenuated” in assay [3] (HMCs, 30 minutes with NP, 0.5 mM IBMX, p ≤0.05 vs samples without bacitracin, 3 independent experiments in triplicate); “significantly attenuated” in assay [4]. The “cell survival on diphtheria toxin (inhibition of PDI-dependent DT toxicity)” value in the assay on PDI was “inhibited PDI function”; in the assay with PDI (listed as Bacitracin), “increased cell survival significantly”. In assay [2] (LLC-PK1 cells (no detectable PDI), p>0.05), the “inhibition of ANP-mediated increases in cGMP” value was “did not inhibit”. Further, the “inhibitory effect on cGMP levels in the presence of protease inhibitors” value in assay [3] (HMCs stimulated by ANP and CNP, with or without protease inhibitor cocktail, 3 independent experiments) is “did not lose its inhibitory effects on cGMP levels”.

As to protein disulfide isomerase [PDI], in assay [2] (LLC-PK1 cells, purified PDI added, compared with cells without PDI, second of two values (condition not given, Fig. 3C)), the “increase of ANP stimulated cGMP production” value is on record as 39%.
